Experiment: Human HepG2 cell viability assay in 384 well format
Format: toxicity, cell-based
Parameters: dose 125 nL, time 70.5 hour; cytotoxicity at 70.5 h: concentration not given beside the values
Settings: HepG2 cells, read-out: Inhibition

Row | Structure (SMILES) | cytotoxicity at 70.5 h
1 | CCN1CCN(Cc2nc(CC(C)C)no2)CC1 | 19.9%
2 | COc1cccc(CNCc2c(C)nn(C)c2N(C)C)c1 | 0.816%
3 | O=C(c1cccc2cccnc12)N1CCCC(n2ccnc2)C1 (configuration not stated) | -5.33%
4 | Cc1cc(NC(=O)CN2CCCC(Cn3nc(C)nc3C)C2)n(C)n1 (configuration not stated) | -2.11%
5 | CCc1nc(C2CCCN2CC(=O)NCCOc2ccccc2)no1 (configuration not stated) | 11.4%
6 | Cc1cc(C)n(CC2CN(Cc3ccccn3)CCO2)n1 (configuration not stated) | 1.96%
7 | COCCOc1cccc(CNCc2c(C)nn(C)c2N(C)C)c1 | -2.1%
8 | Cn1cc(Cl)cc1C(=O)N1CCCN(Cc2nccn2C)CC1 | -1.83%
9 | Cc1noc(C)c1CNC(=O)N(C)C1CCN(c2ccccc2)C1=O (configuration not stated) | -2.2%
10 | CCn1ccnc1CN1CCN(CC(=O)NC2CCOCC2)CC1 | 25.6%
11 | COCCCNC(=O)Nc1ccc(-n2cncn2)c(C(F)(F)F)c1 | -5.91%
12 | CN(C(=O)NCCN1CCOCC1)C1CCN(c2ccccc2)C1=O (configuration not stated) | -14.1%
13 | Cc1ccccc1-c1noc(CN2CCc3cncnc3C2)n1 | -11.1%
14 | Cc1ccc(NC2CCN(C(=O)CCn3nc(C)cc3C)CC2)nn1 | -14.3%
15 | O=C(NCCCNc1ccc(C(F)(F)F)cn1)c1ccc(F)cc1 | -18.9%
16 | COc1ccc(C(=O)NCCCNc2ccc(C(F)(F)F)cn2)cc1 | -17.2%
17 | Cc1ccc(C(=O)NCc2cccnc2N(C)C)o1 | -12.1%
18 | Cc1cc(C(=O)NCc2cccnc2N(C)C)c(C)o1 | 14.3%
19 | Cc1nccc(C(=O)N2CCOC(c3nc(C(C)C)n[nH]3)C2)n1 (configuration not stated) | -5.71%
20 | COc1c(C2CCCN2C(=O)c2ccc3[nH]cnc3c2)c(C)nn1C (configuration not stated) | -0.572%
21 | Cc1noc(C)c1C(=O)N1CCCN(Cc2cscn2)CC1 | -2.11%
22 | COc1c(C2CCCN2C(=O)c2ccnc(C)n2)c(C)nn1C (configuration not stated) | -12.9%
23 | C1CC(NCc2nnc(C3CC3)o2)CN(Cc2noc(C3CC3)n2)C1 (configuration not stated) | -7.51%
24 | COCc1cccc(CNCc2c(C)nn(C)c2N2CCOCC2)c1 | -12.5%
25 | CCOC(C)C(=O)NCc1ccc(N(C)C)cc1 (configuration not stated) | -10.8%
26 | Cc1oc(C)c(C(=O)N2CCN(Cc3cscn3)CC2)c1C | -7.99%

Row | Structure (SMILES) | cytotoxicity at 70.5 h
27 | O=C(CCc1ccccn1)N1CCCC1 | -3.29%
28 | Cc1cnc(C(=O)NCc2ccnc(N(C)C)c2)cn1 | -2.67%
29 | O=C(NCCC(=O)N1CCCc2ccccc21)c1cc(F)cc(F)c1 | -7.42%
30 | Cc1occc1C(=O)N1CCCC(c2nncn2C)C1 (configuration not stated) | -6.07%
31 | Cn1cnnc1C1CCCN(C(=O)c2cc(Cl)c(Cl)n2C)C1 (configuration not stated) | -8.15%
32 | Cc1nn(C)c(N2CCOCC2)c1CNCc1ccc(CO)c(F)c1 | -0.89%
33 | O=C(Cc1ccccn1)N1CCN(C(=O)CC2CCCC2)CC1 | -1.56%
34 | Cc1ccc(N2CCCN(C(=O)CCc3nccs3)CC2)nn1 | -8.06%
35 | CCCc1noc(CNC2CCCN(Cc3noc(C4CC4)n3)C2)n1 (configuration not stated) | -3.33%
36 | CCNc1cc2c(nn1)CCN(C(=O)c1ccoc1)C2 | -11.9%
37 | O=C(CCc1nccs1)N1CCN(c2ccccn2)CC1 | 8.13%
38 | CCc1n[nH]c(C2CN(Cc3nc(C4CC4)no3)CCO2)n1 (configuration not stated) | -3.3%
39 | COc1c(C)cnc(CN(C)C(=O)c2cccnc2N(C)C)c1C | -0.657%
40 | O=C(COc1ccc2c(c1)CCC2)N1CCCC(n2cccn2)C1 (configuration not stated) | 15.3%
41 | O=C(COCCc1ccccc1)N1CCCC(n2cccn2)C1 (configuration not stated) | -6.79%
42 | O=C(c1cccc2c1OCO2)N1CCCCC1Cn1cccn1 (configuration not stated) | -10.8%
43 | Cc1nc2n(n1)CC(NCc1nc(-c3cccnc3)no1)CC2 (configuration not stated) | -7.76%
44 | CCOc1ncccc1C(=O)N1CCCC(n2nc(C)nc2C)C1 (configuration not stated) | -11.7%
45 | O=C(CCNC(=O)c1ccoc1)Nc1ccccc1F | -8.3%
46 | O=C(CCNC(=O)c1ccoc1)Nc1ccc(F)cc1F | -10.2%
47 | COc1ccc(C2CCCN2C(=O)Nc2ccc(OC)nc2)cc1 (configuration not stated) | -7.84%
48 | COCCOc1ccc(NC(=O)N2CCCC2c2ccsc2)cn1 (configuration not stated) | -5.25%
49 | COc1c(C)cnc(CN(C)C(=O)c2ccccn2)c1C | 15.4%
50 | COc1c(C)cnc(CN(C)C(=O)c2ccccc2O)c1C | 0.1%
51 | CC(NC(=O)NCCCOc1ccccc1F)c1nncn1C (configuration not stated) | -7.39%
52 | Cc1nn(C)c(C)c1NC(=O)CN1CCOC(Cn2cccn2)C1 (configuration not stated) | -1.52%

Row | Structure (SMILES) | cytotoxicity at 70.5 h
53 | Cc1cnn(C2CCCN(C(=O)COc3ccc(C(N)=O)cc3)C2)c1 (configuration not stated) | -9.97%
54 | O=C(c1ccccc1N1CCOCC1)N1CCCC1Cn1cccn1 (configuration not stated) | -4.2%
55 | CCc1nccn1C1CCCN(C(=O)c2cnc3onc(C)c3c2)C1 (configuration not stated) | -2.35%
56 | NC(=O)c1cccc(OCC(=O)N2CCCC(n3cccn3)C2)c1 (configuration not stated) | 3.84%
57 | Cc1cc(C)n(C2CCCN(C(=O)c3c[nH]c(=O)c(Cl)c3)C2)n1 (configuration not stated) | -8.77%
58 | Cc1nc(C)n(C2CCCN(C(=O)c3cccnc3NC(C)C)C2)n1 (configuration not stated) | -9.03%
59 | Cc1nc(C)n(C2CCCN(C(=O)c3cccc4[nH]ncc34)C2)n1 (configuration not stated) | -6.19%
60 | CCCc1n[nH]c(C2CN(Cc3nnc(C4CC4)n3C)CCO2)n1 (configuration not stated) | -5.29%
61 | Cc1oc(-c2ccco2)nc1CC(=O)N1CCN(CC(C)O)CC1 (configuration not stated) | 11.6%
62 | CC(C)c1nc(CN2CCCC(O)C2)cs1 (configuration not stated) | 13.1%
63 | CNC(=O)CN1CCCC(Cc2ccccc2OC)C1 (configuration not stated) | 5.69%
64 | Cc1oc(-c2ccco2)nc1CC(=O)N1CCC(CCO)C1 (configuration not stated) | -11%
65 | CCn1ncc2c1CCCC2NCc1ccc(C)s1 (configuration not stated) | -4.74%
66 | Cc1c(Cl)c(CN2CCCC2Cn2cncn2)nc2ccccc12 (configuration not stated) | -6.2%
67 | CC(C)c1nccn1C1CCCN(C(=O)c2ccc3c(c2)COC3)C1 (configuration not stated) | -8.53%
68 | COc1ccc(Cl)cc1CS(=O)(=O)CC(=O)N(C)Cc1ccccc1F | -12.1%
69 | Cc1csc(CNC(=O)N(C)Cc2ccc3c(c2)OCCO3)n1 | -10.6%
70 | CCN(Cc1ccc2c(c1)OCO2)C(=O)NCc1nc(C)cs1 | -9.62%
71 | CCN(Cc1ccc2c(c1)OCCO2)C(=O)NCc1csc(C)n1 | -9.9%
72 | CCOc1ccc(CC(CNC(=O)c2ccco2)C(N)=O)cc1 (configuration not stated) | -6.1%
73 | COc1ccccc1CC1CCCN(CC(=O)NC2CC2)C1 (configuration not stated) | -8.21%
74 | CNC(=O)NC(=O)CN1CCCC(Cc2ccccc2OC)C1 (configuration not stated) | -6.62%
75 | CC(C)c1nnc2n1CCN(C(=O)c1ccc(OCC3CC3)cc1)C2 | -6.55%
76 | Cc1cc(NC(=O)CN2CCn3c(nnc3C(C)C)C2)on1 | -0.984%
77 | CC(C)c1nnc2n1CCN(C(=O)c1ccc(S(C)(=O)=O)cc1)C2 | -5.36%
78 | Cc1nc(CN2CCCC(N(C)Cc3nc(C)c(C)o3)C2)no1 (configuration not stated) | -2.87%

Row | Structure (SMILES) | cytotoxicity at 70.5 h
79 | Cc1nc(CN2CCCN(CC(=O)Nc3ccncc3)CC2)no1 | 5.91%
80 | Cc1nc(CN2CCCC(N(C)Cc3cnc(C)s3)C2)no1 (configuration not stated) | -1.22%
81 | Cc1cc(NC(=O)CN2CCn3c(nnc3-c3ccccc3)C2)no1 | -1.17%
82 | Cc1cc(NC(=O)CCN2CCn3c(nnc3C3CC3)C2)no1 | -11.7%
83 | CCOc1ccccc1-c1noc(CN2CC(n3cccn3)C2)n1 | -14.4%
84 | O=C(Cc1ccc2c(c1)OCCO2)N1CCCC(n2ccnc2)C1 (configuration not stated) | 18.8%
85 | CCn1nc(C(=O)N2CCCC(n3cncn3)C2)ccc1=O (configuration not stated) | -14.8%
86 | CCOc1ccccc1-c1noc(CN2CCCC(O)C2)n1 (configuration not stated) | -11.1%
87 | CN(Cc1ccsc1)C(=O)CN1CCCC1Cn1cccn1 (configuration not stated) | -13.8%
88 | CCc1nc(C2CCCN2Cc2nc3ccccc3o2)no1 (configuration not stated) | -17.9%
89 | CCc1nc(C2CCCN2Cc2nnc(Cc3ccccc3)o2)no1 (configuration not stated) | -10.8%
90 | CN(Cc1ccco1)C(=O)CN1CCCCC1Cn1cccn1 (configuration not stated) | -12.4%
91 | Cn1cc(-c2nc(CNCCn3cccn3)cs2)cn1 | 12.5%
92 | Cc1n[nH]c(=O)c2c(NC(=O)CN3CCCC(C(F)(F)F)C3)oc(C)c12 (configuration not stated) | 15.7%
93 | COC(=O)COc1cccc(NS(=O)(=O)c2cc(C(=O)O)cs2)c1 | 10.9%
94 | COc1ccc(S(N)(=O)=O)cc1C(=O)N(C)Cc1cc(C)on1 | 24.6%
95 | Cc1ccsc1CN(C)Cc1nc2c(cnn2C)c(=O)[nH]1 | -7.29%
96 | CC(C)(C)c1cn2nc(N3CCOC(Cn4cncn4)C3)sc2n1 (configuration not stated) | -15.9%
97 | CC(C)(C)C(O)CN1CCN(C(=O)c2cccc3ncccc23)CC1 (configuration not stated) | 20.7%
98 | Cn1nc2c(cc1=O)CN(Cc1nnc(-c3ccc(F)cc3)o1)CC2 | -22.9%
99 | CCSCCC(=O)NS(=O)(=O)c1ccc2c(c1)OCCO2 | -13.7%
100 | O=C(CSc1ccc(F)c(F)c1)NS(=O)(=O)c1ccc2c(c1)OCCO2 | -14%
101 | CCc1nc(CN2CCN(C(=O)C3CCCCC3)CC2)cs1 | -12.3%
102 | CCc1nc(CN2CCCN(C(=O)c3c(C)noc3C)CC2)cs1 | -12.9%

— ChEMBL document CHEMBL3507680, “University of Dundee, Gates Library screen for HepG2 cell viability”
